Reference: patent US4442214A, “Thermo-stable micro-organism” (Development Finance Corporation of New Zealand, priority 1979, dated 1984)
Where two headings read alike, the source gives them in different places.

B1: THERMOLYSIN: thermophilic protease from BACILLUS THERMOPROTEOLYTICUS, published data (protein, UniProt P00800 233-548, looked up)
Thermolysin: ITGTSTVGVGRGVLGDQKNINTTYSTYYYLQDNTRGNGIFTYDAKYRTTLPGSLWADADNQFFASYDAPAVDAHYYAGVTYDYYKNVHNRLSYDGNNAAIRSSVHYSQGYNNAFWNGSQMVYGDGDGQTFIPLSGGIDVVAHELTHAVTDYTAGLIYQNESGAINEAISDIFGTLVEFYANKNPDWEIGEDVYTPGISGDSLRSMSDPAKYGDPDHYSKRYTGTQDNGGVHINSGIINKAAYLISQGGTHYGVSVVGIGRDKLGKIFYRALTQYLTPTSNFSQLRAAAVQSATDLYGSTSQEVASVKQAFDAVGVK

Legend:
[1] = tested on: NADH and succinate oxidases; test: Oxidase system activities (oxygen uptake) with inhibitors; assay type: biochemical; settings: THERMUS T-351 oxidase systems
Protocol: Oxygen uptake was measured polarographically using a Rank electrode (Rank Brothers, Bottisham, Cambridge, England). The reaction mixture consisted of 0.1 M KH2 PO4 /Na2 HPO4 buffer pH 7.0, a suitable amount of membrane particle protein, 50 μmol of substrate (except in the case of NADH were 5 μmol were used), in a final volume of 2.5 ml.
Buffers were equilibrated at the desired temperature with sparged air for 30 minutes.
Particles were equilibrated in the electrode for 2 minutes prior to measurement of oxygen uptake. Rates were measured over the first minute.

CALDOLYSIN = test: Response of CALDOLYSIN to inhibitors; assay type: biochemical, THERMUS T-351
[2] = 80° C.; published data; cited from earlier work

| Molecule | relative effect on NADH oxidase and succinate oxidase [1] | further results |
| --- | --- | --- |
| C=C(C)[C@H]1Cc2c(ccc3c2O[C@@H]2COc4cc(OC)c(OC)cc4[C@@H]2C3=O)O1 [Rotenone] | more effect on the NADH oxidase |  |
| O=C(O)CN(CCOCCOCCN(CC(=O)O)CC(=O)O)CC(=O)O [EGTA] |  | % Inhibitor of Activity (CALDOLYSIN; inhibitor 1 mM): 18%; % Inhibitor of Activity (CALDOLYSIN; inhibitor 10 mM): 45% |
| c1ccc(-c2ccnc3c2ccc2c(-c4ccccc4)ccnc23)cc1 [Bathophenanthroline] | more effective inhibitors of succinate oxidase |  |
| O=C(O)CI [Iodoacetic acid] |  | % Inhibitor of Activity (CALDOLYSIN): 60% |
| CCC1(CCC(C)C)C(=O)NC(=O)NC1=O [amytal] | affected NADH and succinate oxidases equally |  |
| antimycin A | more effective inhibitors of succinate oxidase |  |
| O=S(=O)(F)Cc1ccccc1 [Phenylmethyl Sulfonyl Fluoride] |  | % Inhibitor of Activity (CALDOLYSIN; inhibitor 10 mM): 10% |
| CCCCCCCc1cc(O)c2ccccc2[n+]1[O-] [2-heptyl-4-hydroxyquinoline-N-oxide] | more effective inhibitors of succinate oxidase |  |
| B1 |  | HALF-LIFE [2]: 1 h |
